± gives the expanded uncertainty stated by the source.
Conditions: Liquid, Closed cell (Static) method

FCC(F)(F)F [1,1,1,2-tetrafluoroethane]
Conditions | vapor or sublimation pressure [kPa]
243.1 K | 84.23 ± 2.2
248.08 K | 106.12 ± 2.3
263.01 K | 199.39 ± 2.9
283.03 K | 412.95 ± 4.7
303.12 K | 769.5 ± 8.1
328.05 K | 1488 ± 15
352.93 K | 2620.8 ± 27

C=C(F)C(F)(F)F [2,3,3,3-tetrafluoro-1-propene]
Conditions | vapor or sublimation pressure [kPa]
224.12 K | 38.9 ± 2
228.21 K | 48.3 ± 2
233.12 K | 62 ± 2
234.21 K | 65.5 ± 2
238.08 K | 78.7 ± 2
243.03 K | 98.8 ± 2
247.95 K | 121.7 ± 2
252.91 K | 149.2 ± 2
255.49 K | 165.3 ± 2
257.7 K | 180.4 ± 2
258.61 K | 186.9 ± 2
263.14 K | 221.7 ± 2.1
268.1 K | 265.1 ± 2.1
272.98 K | 313.9 ± 2.1
277.96 K | 370.5 ± 2.1
283.09 K | 437.1 ± 2.2
288.08 K | 509.4 ± 2.2
292.87 K | 587.3 ± 2.3
297.97 K | 679.4 ± 2.4
303.12 K | 783.2 ± 2.4
308.11 K | 894.6 ± 2.6
313.09 K | 1018 ± 2.7
315.59 K | 1083.5 ± 2.7
318.08 K | 1153 ± 2.8
320.61 K | 1224 ± 2.9
323.11 K | 1301.1 ± 3
325.58 K | 1380 ± 3.1
333.06 K | 1638.3 ± 3.4
338.05 K | 1831 ± 3.7
343.02 K | 2039 ± 3.9
348.01 K | 2265.6 ± 4.2
352.98 K | 2511.5 ± 4.6
357.97 K | 2778.2 ± 4.9
362.94 K | 3067.1 ± 5.3
365.93 K | 3218.4 ± 5.4
